Here are results for 20 molecules from ChEMBL document CHEMBL1127587, “Modeling the anticarcinogenic action of retinoids by making use of the OASIS method. 3. Inhibition of the induction of ornithine decarboxylase by arotinoids” (J Med Chem, 1994).

The nature of this series: Tested for experimental arotinoid inhibitory dose.
Consider `CC1(C)CCC(C)(C)c2cc3cc(-c4ccc(C(=O)O)cc4)ccc3cc21`, for which the “-Log ID50” value is recorded as 10.15.
As for `C/C(=C\c1ccc(C(=O)O)cc1)c1ccc2c(c1)C(C)(C)CC[C@H]2C`, the “-Log ID50” value is on record as 10.22.
Then `C/C(=C\c1ccc(C(=O)O)cc1)c1ccc2c(c1)CCCC2(C)C`, with 9.22.
In the case of `C/C(=C\c1ccc(C(=O)O)cc1)c1ccc2c(c1)C(C)(C)CCO2`, the “-Log ID50” value is 8.57.
As to `C/C(=C\c1ccc(C(=O)O)cc1)c1ccc(SCCC(C)C)cc1`, the “-Log ID50” value amounted to 6.77.
As for `C/C(=C\c1ccc(C(=O)O)cc1)c1cc2c(s1)CCCC2(C)C`, the “-Log ID50” value is 10.
Take `C/C(=C\c1ccc(C(=O)O)cc1)c1ccc2ccc(C)c(C)c2c1`: the “-Log ID50” value stood at 6.7.
Then `C/C(=C\c1ccc(C(=O)O)cc1)c1ccc2c(C)c(C)c(C)c(C)c2c1`, with 8.8.
In the case of `C/C(=C\c1ccc(C(=O)O)cc1)c1ccc2c(c1)SCCC2(C)C`, the “-Log ID50” value was determined as 9.22.
For the molecule `C/C(=C(/F)c1ccc(C(=O)O)cc1)c1cc2c(s1)CCCC2(C)C`, the “-Log ID50” value is on record as 9.22.
In the case of `C/C(=C\c1ccc(C(=O)O)cc1)c1ccc2c(c1)C(C)(C)CC[C@@H]2C`, the “-Log ID50” value is 10.3.
The result for `C/C(=C\c1ccc(C(=O)O)cc1)c1ccc2c(c1)C(C)(C)CCC2C` (stereo not given) reads 10.15.
On to `C/C(=C\c1ccc2c(c1)C(C)(C)CCC2(C)C)c1ccc(C(=O)O)cc1`, for which the “-Log ID50” value is 10.52.
For `C/C(=C\c1ccc(C(=O)O)cc1)c1ccc2c(c1)C(C)(C)CCC2`, the “-Log ID50” value worked out at 8.96.
In the case of `COc1ccc(/C(C)=C/c2ccc(C(=O)O)cc2)cc1C(C)(C)C`, the “-Log ID50” value worked out at 9.4.
Take `C/C(=C(/F)c1ccc(C(=O)O)cc1)c1ccc2c(c1)C(C)(C)CCC2(C)C`: the “-Log ID50” value is reported as 10.1.
As for `C/C(=C\c1ccc(C(=O)O)cc1)c1ccc2c(c1)C(C)(C)CCC2(C)C`, the “-Log ID50” value is reported as 10.52.
In the case of `C/C(=C\c1ccc2c(c1)C(C)(C)CCS2)c1ccc(C(=O)O)cc1`, the “-Log ID50” value is 9.22.
With `C/C(=C\c1ccc(C(=O)O)cc1)c1ccc2c(c1)C1CCC2C1` (stereo not given), the “-Log ID50” value is recorded as 8.51.
Then `C/C(=C\c1ccc(C(=O)O)cc1)c1ccc2c(c1)C(C)(C)CCS2`, with 9.3.
